Laboratory results from ChEMBL document CHEMBL1131394, “Design and synthesis of N-alkylated saccharins as selective alpha-1a adrenergic receptor antagonists” (Bioorg Med Chem Lett, 1998).

How the values were obtained:
[1] = molecular target: T1, Alpha-1D adrenergic receptor (Homo sapiens, UniProt P25100); assay: Ability to displace beta ([125I]-iodo-4-hydroxyphenyl) ethylamino methyl tetralone from human cloned Alpha-1d adrenergic receptor stably expressed in HEK cells.; format: cell-based, HEK293
T1 sequence (P25100 whole entry): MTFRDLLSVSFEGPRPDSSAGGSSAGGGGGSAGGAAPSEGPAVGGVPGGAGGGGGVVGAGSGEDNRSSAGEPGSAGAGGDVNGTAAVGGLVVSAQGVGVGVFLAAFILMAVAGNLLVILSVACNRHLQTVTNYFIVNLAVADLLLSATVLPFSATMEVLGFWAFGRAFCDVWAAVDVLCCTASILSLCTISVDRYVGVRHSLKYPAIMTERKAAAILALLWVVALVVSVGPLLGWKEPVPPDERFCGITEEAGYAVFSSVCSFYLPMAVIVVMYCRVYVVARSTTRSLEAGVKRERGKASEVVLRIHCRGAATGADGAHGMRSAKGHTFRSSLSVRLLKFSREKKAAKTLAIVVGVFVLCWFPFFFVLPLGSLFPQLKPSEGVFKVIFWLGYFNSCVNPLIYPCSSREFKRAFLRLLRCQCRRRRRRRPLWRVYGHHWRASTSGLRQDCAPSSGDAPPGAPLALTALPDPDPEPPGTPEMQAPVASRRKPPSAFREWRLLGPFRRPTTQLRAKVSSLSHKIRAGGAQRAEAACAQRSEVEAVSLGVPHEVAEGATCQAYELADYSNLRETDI

[2] = molecular target: T2, Alpha-1A adrenergic receptor (Homo sapiens, UniProt P35348); assay: Ability to displace beta ([125I]-iodo-4-hydroxyphenyl)-ethylaminomethyl tetralone from human cloned Alpha-1a adrenergic receptor stably expressed in CHO cells; format: cell-based
T2 sequence (P35348 whole entry): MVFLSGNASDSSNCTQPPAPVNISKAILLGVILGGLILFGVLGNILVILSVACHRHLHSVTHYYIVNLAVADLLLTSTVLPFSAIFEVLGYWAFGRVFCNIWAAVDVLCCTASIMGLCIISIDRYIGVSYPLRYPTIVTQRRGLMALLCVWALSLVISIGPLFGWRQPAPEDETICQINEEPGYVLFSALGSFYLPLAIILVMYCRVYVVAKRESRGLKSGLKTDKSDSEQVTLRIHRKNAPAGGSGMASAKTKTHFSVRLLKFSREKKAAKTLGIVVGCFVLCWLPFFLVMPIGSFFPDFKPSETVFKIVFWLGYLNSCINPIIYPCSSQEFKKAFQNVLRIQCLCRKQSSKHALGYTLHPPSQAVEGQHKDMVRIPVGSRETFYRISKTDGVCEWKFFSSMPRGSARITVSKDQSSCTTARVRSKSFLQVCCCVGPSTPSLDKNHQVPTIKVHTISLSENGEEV

[3] = molecular target: T3, Alpha-1B adrenergic receptor (Homo sapiens, UniProt P35368); assay: Ability to displace beta ([125I]-iodo-4-hydroxyphenyl)-ethylamino methyl tetralone from human cloned Alpha-1b adrenergic receptor stably expressed in LM cells.; format: cell-based
T3 sequence (P35368 whole entry): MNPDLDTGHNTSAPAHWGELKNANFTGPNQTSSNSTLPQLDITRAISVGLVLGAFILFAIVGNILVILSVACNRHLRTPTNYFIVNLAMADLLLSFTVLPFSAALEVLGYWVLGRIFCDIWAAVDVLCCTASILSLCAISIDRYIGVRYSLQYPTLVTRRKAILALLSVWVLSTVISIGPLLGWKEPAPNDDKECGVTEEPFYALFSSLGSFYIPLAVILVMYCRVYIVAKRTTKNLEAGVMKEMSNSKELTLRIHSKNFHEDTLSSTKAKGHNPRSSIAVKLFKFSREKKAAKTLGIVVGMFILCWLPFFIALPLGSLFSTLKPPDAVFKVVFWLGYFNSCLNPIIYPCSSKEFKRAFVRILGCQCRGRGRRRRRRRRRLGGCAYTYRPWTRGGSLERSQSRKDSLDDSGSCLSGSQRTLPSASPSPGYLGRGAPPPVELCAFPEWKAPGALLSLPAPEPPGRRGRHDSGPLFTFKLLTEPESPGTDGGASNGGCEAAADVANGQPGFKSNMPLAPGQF

[4] = molecular target: T2, Alpha-1A adrenergic receptor; assay: Ability to displace beta ([125I]-iodo-4-hydroxyphenyl)-ethylamino methyl tetralone from human cloned Alpha-1a adrenergic receptor stably expressed in Chinese Hamster Ovary (CHO) cells; format: cell-based
[5] = molecular target: T4, Adrenergic receptors; alpha-1 A & B (Homo sapiens) (UniProt P35348+P35368); assay: Selectivity towards alpha-1a over alpha-1b receptor; 97x; format: protein assay
[6] = molecular target: T5, Alpha adrenergic receptor (1a and 1d) (Homo sapiens) (UniProt P35348+P25100); assay: Selectivity towards Alpha-1A over alpha1d receptor; 208x; format: protein assay
[7] = molecular target: T4, Adrenergic receptors; alpha-1 A & B (Homo sapiens); assay: Selectivity towards Alpha-1A over alpha-1b receptor; 188x; format: protein assay
[8] = molecular target: T5, Alpha adrenergic receptor (1a and 1d) (Homo sapiens); assay: Selectivity towards Alpha-1A over alpha-1d receptor; 266x; format: protein assay
[9] = molecular target: T2, Alpha-1A adrenergic receptor; assay: Ability to displace beta ([125I]-iodo-4-hydroxyphenyl)-ethylaminomethyl tetralone from human cloned Alpha-1a adrenergic receptor stably expressed in CHO cells
[10] = molecular target: T5, Alpha adrenergic receptor (1a and 1d) (Homo sapiens); assay: Selectivity towards alpha-1a over alpha1d receptor; 5.5x; format: protein assay
[11] = molecular target: T4, Adrenergic receptors; alpha-1 A & B (Homo sapiens); assay: Selectivity towards Alpha-1A over alpha-1b receptor; 3.3x; format: protein assay
[12] = molecular target: T2, Alpha-1A adrenergic receptor; assay: Ability to displace beta ([125I]-iodo-4-hydroxyphenyl)-ethylaminomethyl tetralone from human cloned Alpha-1a adrenergic receptor stably expressed in Chinese Hamster Ovary (CHO) cells; format: cell-based
[13] = molecular target: T4, Adrenergic receptors; alpha-1 A & B (Homo sapiens); assay: Selectivity towards Alpha-1A over alpha-1b receptor; 11x; format: protein assay
[14] = molecular target: T5, Alpha adrenergic receptor (1a and 1d) (Homo sapiens); assay: Selectivity towards Alpha-1A over alpha-1d receptor; 56x; format: protein assay
[15] = molecular target: T4, Adrenergic receptors; alpha-1 A & B (Homo sapiens); assay: Selectivity towards Alpha-1A over alpha-1b receptor; 5x; format: protein assay
[16] = molecular target: T5, Alpha adrenergic receptor (1a and 1d) (Homo sapiens); assay: Selectivity towards Alpha-1A over alpha1d receptor; 11x; format: protein assay
[17] = molecular target: T1, Alpha-1D adrenergic receptor; assay: Ability to displace beta ([125I]-iodo-4-hydroxyphenyl)-ethylamino methyl tetralone from human cloned Alpha-1d adrenergic receptor stably expressed in COS-7 cells; format: cell-based
[18] = molecular target: T2, Alpha-1A adrenergic receptor; assay: Ability to displace beta ([125I]-iodo-4-hydroxyphenyl)-ethylaminomethyl tetralone from human cloned Alpha-1a adrenergic receptor stably expressed in COS-7 cells; format: cell-based
[19] = molecular target: T3, Alpha-1B adrenergic receptor; assay: Ability to displace beta ([125I]-iodo-4-hydroxyphenyl)-ethylamino methyl tetralone from human cloned Alpha-1b adrenergic receptor stably expressed in COS-7 cells; format: cell-based
Canis familiaris [20] = assay: In vivo inhibitory activity against […]-induced increase in diastolic blood pressure (DBP) in dog; format: functional, Canis lupus familiaris, Artery
Canis familiaris [21] = assay: In vivo inhibitory activity against […]-induced increase in urethral pressure (IUP) in dog; format: functional, Canis lupus familiaris, Urethra

SMILES	Ki [1] [nM]	Ki [3] [nM]	Ki [4] [nM]	other results
CSc1ccc2c(c1)C(=O)N(CCCCN1CCC(n3c(=O)oc4ccccc43)CC1)S2(=O)=O	59	10		Ki [2]: 0.057 nM
COC(=O)c1ccc2c(c1)oc(=O)n2C1CCN(CCCCN2C(=O)c3ccccc3S2(=O)=O)CC1	3430	1960	1030	
Cc1ccc2c(c1)oc(=O)n2C1CCN(CCCCN2C(=O)c3ccccc3S2(=O)=O)CC1	644	301	3.1	Selectivity [5]: 97; Selectivity [6]: 208
O=C1c2ccc([N+](=O)[O-])cc2S(=O)(=O)N1CCCCN1CCC(n2c(=O)oc3ccccc32)CC1	75	75		Ki [2]: 0.16 nM
O=C1c2cc(F)ccc2S(=O)(=O)N1CCCCN1CCC(n2c(=O)oc3ccccc32)CC1	71	50		Selectivity [7]: 188; Selectivity [8]: 266; Ki [9]: 0.27 nM
COc1ccc2c(c1)oc(=O)n2C1CCN(CCCCN2C(=O)c3ccccc3S2(=O)=O)CC1	2750	1650	499	Selectivity [10]: 5.5; Selectivity [11]: 3.3
O=C1c2ccccc2S(=O)(=O)N1CCCCN1CCC(n2c(=O)oc3cc(F)ccc32)CC1	25	7.3	0.084	
Cc1ccc2c(c1)C(=O)N(CCCCN1CCC(n3c(=O)oc4ccccc43)CC1)S2(=O)=O	73	20		Ki [12]: 0.099 nM
O=C1c2ccccc2C(=O)N1CCCCN1CCC(n2c(O)nc3ccccc32)CC1				Selectivity [13]: 11; Selectivity [14]: 56
Cc1cc(C)c2oc(=O)n(C3CCN(CCCCN4C(=O)c5ccccc5S4(=O)=O)CC3)c2c1	224	108	20	Selectivity [15]: 5; Selectivity [16]: 11
COc1ccc2c(c1)C(=O)N(CCCCN1CCC(n3c(=O)oc4ccccc43)CC1)S2(=O)=O	76	15		Ki [12]: 0.064 nM
O=C1c2cc([N+](=O)[O-])ccc2S(=O)(=O)N1CCCCN1CCC(n2c(=O)oc3ccccc32)CC1	351	133	0.13	
O=C1c2ccccc2C(=O)N1CCCCN1CCC(n2c(=O)[nH]c3ccccc32)CC1	16	3	0.28	
O=C1c2ccccc2S(=O)(=O)N1CCCCN1CCC(n2c(=O)oc3cc4c(cc32)CCCC4)CC1	894	676	90	
O=C1c2ccccc2S(=O)(=O)N1CCCCN1CCC(n2c(=O)oc3ccccc32)CC1	41	14	0.12	
Cc1ccc2oc(=O)n(C3CCN(CCCCN4C(=O)c5ccccc5S4(=O)=O)CC3)c2c1	136	37	1.2	
CS(=O)(=O)c1ccc2c(c1)S(=O)(=O)N(CCCCN1CCC(n3c(=O)oc4ccccc43)CC1)C2=O				Ki [17]: 210 nM; Ki [18]: 2.4 nM; Ki [19]: 6.8 nM
Cc1cccc2oc(=O)n(C3CCN(CCCCN4C(=O)c5ccccc5S4(=O)=O)CC3)c12	1020	1150	147	
O=C1c2cc(Cl)ccc2S(=O)(=O)N1CCCCN1CCC(n2c(=O)oc3ccccc32)CC1	85			Kb (Canis familiaris [20]): 156 µg/kg; Kb (Canis familiaris [21]): 5.5 µg/kg
COc1cc2nc(N3CCN(C(=O)C4CCCO4)CC3)nc(N)c2cc1OC (stereo unspecified) [TERAZOSIN]				Kb (Canis familiaris [20]): 17 µg/kg; Kb (Canis familiaris [21]): 16 µg/kg
